Common to all, as to format: cell-based
The target in test [1] is T1, CDK2 (Homo sapiens, UniProt P24941).
T1 construct: host or cells: HEK293-CDK2-Hibit
Briefly: HiBit Assay Protocol for CDK2 (HIBIT protein quantification, degradation). The following applies: HEK293-CDK2-Hibit cells, compound treatment for 6 hours; for DC50: ABS DC50. In short, it runs like this:
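HEK293 cells expressing HiBiT-tagged CDK2 were seeded overnight, then treated 6 h with a 3-fold, 10-point compound dilution series. CDK2 levels were read as luminescence after lytic HiBiT/LgBiT detection, normalised to DMSO-only and medium-only controls, and DC50 derived by curve fitting.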

In test [2] the target is T2, CCNE1 (Homo sapiens, UniProt P24864).
T2 construct: host or cells: HEK293-CCNE1-Hibit
T2 sequence (P24864 whole entry): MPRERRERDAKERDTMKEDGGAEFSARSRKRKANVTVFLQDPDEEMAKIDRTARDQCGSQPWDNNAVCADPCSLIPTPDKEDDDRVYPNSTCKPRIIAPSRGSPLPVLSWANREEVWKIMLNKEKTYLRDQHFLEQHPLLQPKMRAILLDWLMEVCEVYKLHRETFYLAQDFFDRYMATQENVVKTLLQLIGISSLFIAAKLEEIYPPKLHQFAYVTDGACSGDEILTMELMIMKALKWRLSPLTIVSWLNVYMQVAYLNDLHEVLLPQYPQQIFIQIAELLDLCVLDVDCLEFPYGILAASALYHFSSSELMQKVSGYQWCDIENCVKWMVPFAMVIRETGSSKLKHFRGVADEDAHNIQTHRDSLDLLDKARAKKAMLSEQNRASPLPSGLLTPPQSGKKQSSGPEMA
Briefly: HiBit Assay Protocol for CCNE1 (HIBIT protein quantification, degradation). The following applies: HEK293-CCNE1-Hibit cells, compound treatment for 6 hours. In short, it runs like this:
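HEK293 cells expressing HiBiT-tagged CCNE1 were seeded overnight, then treated 6 h with a 3-fold, 10-point compound dilution series. HiBiT levels were read by lytic LgBiT luminescence and normalised to DMSO-only (high) and medium-only (low) controls. DC50 was derived by curve fitting.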
For orientation: With HiBiT, luminescence reflects the tagged protein that the partner subunit can reach.

Test [3] concerns the target T3, CDK9 (Homo sapiens, UniProt P50750).
T3 construct: host or cells: HEK293-CDK9-Hibit
Nature of the test: HiBit Assay Protocol for CDK9 (HIBIT protein quantification, degradation). To be noted: HEK293-CDK9-Hibit cells, compound treatment for 6 hours; for Dmax: read-out: CDK9 HIBIT Protein Quantification Maximum. The gist of the method:
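HEK293 cells carrying HiBiT-tagged CDK9 treated 6 h with compounds in a 3-fold, 10-point dilution series. CDK9 level read by lytic Nano-Glo HiBiT/LgBiT luminescence and normalized to 0.1% DMSO (high) and medium-only (low) controls. DC50 from curve fitting.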

This note sets out measurements from patent US20260070917A1, “CYCLIN DEPENDENT KINASE DEGRADERS AND METHODS OF USE THEREOF” (Differentiated Therapeutics Inc, priority 2023, published 2026).

One may read the DC50 as the concentration at which degradation of the target reaches its halfway point. A high value points to degradation only at high concentration.

SMILES strings stand for the structures. Read-outs that look alike come from different tables or passages of the source.

T3 sequence (P50750 whole entry): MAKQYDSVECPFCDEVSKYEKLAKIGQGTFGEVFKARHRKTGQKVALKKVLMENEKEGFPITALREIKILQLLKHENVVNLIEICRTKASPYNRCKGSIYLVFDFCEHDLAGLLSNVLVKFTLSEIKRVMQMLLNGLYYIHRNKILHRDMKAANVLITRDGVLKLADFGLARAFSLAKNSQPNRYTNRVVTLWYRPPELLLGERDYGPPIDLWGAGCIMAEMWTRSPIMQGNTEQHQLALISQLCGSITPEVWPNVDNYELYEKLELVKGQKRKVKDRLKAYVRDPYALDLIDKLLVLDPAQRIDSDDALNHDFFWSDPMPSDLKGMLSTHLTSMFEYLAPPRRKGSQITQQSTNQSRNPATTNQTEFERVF

With `Cn1c(=O)n(C2CCC(=O)NC2=O)c2ccc(-c3ccc(Oc4cccc(S(=O)(=O)N5CCC(Nc6ncc7c(n6)N([C@@H]6CCC[C@@H](O)C6)C(=O)C76CC6)CC5)c4)cc3)cc21` (stereo partly drawn) [Compound 149, 3-(5-{4-[3-(4-{7′-[(1R,3R)-3-Hydroxycyclohexyl]-6′-oxospiro[cyclopropane-1,5′-pyrrolo[2,3-d]pyrimidin]-2′-ylamino}piperidin-1-ylsulfonyl)phenoxy]phenyl}-3-methyl-2-oxo-1,3-benzodiazol-1-yl)piperidine-2,6-dione], in test [1], the “CDK2 HIBIT Protein Quantification Maximum” value was found to be 69% and the DC50 was 13.9 nM. The “CCNE1 HIBIT Protein Quantification Maximum” value in test [2] was found to be 11%. The Dmax in test [3] (6 h) amounted to 17%.
Take `Cn1c(=O)n(C2CCC(=O)NC2=O)c2cccc(-c3ccc(Oc4cccc(S(=O)(=O)N5CCC(Nc6ncc7c(n6)N([C@@H]6CCC[C@@H](O)C6)C(=O)C76CC6)CC5)c4)cc3)c21` (stereo partly shown) [Compound 150]: in test [1], the “CDK2 HIBIT Protein Quantification Maximum” value is recorded as 67% and half-maximal degradation (DC50) was put at 12.9 nM. Further, the “CCNE1 HIBIT Protein Quantification Maximum” value in test [2] came out at 41%. The Dmax in test [3] (6 h) is 45%.
The like results for `C[C@@H]1CN(S(=O)(=O)c2cccc(CN3CCC(c4ccc5c(N6CCC(=O)NC6=O)nn(C)c5c4)CC3)c2)CC[C@@H]1Nc1ncc2c(n1)N([C@@H]1CCC[C@@H](O)C1)C(=O)C21CC1` [Compound 153, 1-{6-[1-({3-[(3R,4S)-4-{7′-[(1R,3R)-3-Hydroxycyclohexyl]-6′-oxospiro[cyclopropane-1,5′-pyrrolo[2,3-d]pyrimidin]-2′-ylamino}-3-methylpiperidin-1-ylsulfonyl]phenyl}methyl)piperidin-4-yl]-1-methylindazol-3-yl}-1,3-diazinane-2,4-dione] were, in that order, 57%, 9.42 nM, 28% and 17%.
As for `C[C@@H]1CN(S(=O)(=O)c2cccc(CN3CCC(c4ccc5c(N6CCC(=O)NC6=O)nn(C)c5c4)CC3)c2)CC[C@H]1Nc1ncc2c(n1)N([C@@H]1CCC[C@@H](O)C1)C(=O)C21CC1` [Compound 154], in test [1], the “CDK2 HIBIT Protein Quantification Maximum” value was 64% and the DC50 was 7.87 nM. In test [2], the “CCNE1 HIBIT Protein Quantification Maximum” value worked out at 31%. Besides, the Dmax in test [3] (6 h) worked out at 15%.
With `Cn1nc(N2CCC(=O)NC2=O)c2ccc(C3CCN(Cc4cccc(S(=O)(=O)N5CC[C@@H](Nc6ncc7c(n6)N([C@@H]6CCC[C@@H](O)C6)C(=O)C76CC6)[C@@H](F)C5)c4)CC3)cc21` [Compound 155, 1-{6-[1-({3-[(3S,4R)-3-Fluoro-4-{7′-[(1R,3R)-3-hydroxycyclohexyl]-6′-oxospiro[cyclopropane-1,5′-pyrrolo[2,3-d]pyrimidin]-2′-ylamino}piperidin-1-ylsulfonyl]phenyl}methyl)piperidin-4-yl]-1-methylindazol-3-yl}-1,3-diazinane-2,4-dione], the “CDK2 HIBIT Protein Quantification Maximum” value in test [1] was found to be 19%. Further, in test [2], the “CCNE1 HIBIT Protein Quantification Maximum” value came out at 14%. The Dmax in test [3] (6 h) was found to be 8%.
As for `Cn1nc(N2CCC(=O)NC2=O)c2ccc(C3CCN(Cc4cccc(S(=O)(=O)N5CC[C@H](Nc6ncc7c(n6)N([C@@H]6CCC[C@@H](O)C6)C(=O)C76CC6)[C@H](F)C5)c4)CC3)cc21` [Compound 156], in test [1], the “CDK2 HIBIT Protein Quantification Maximum” value is 81% and half-maximal degradation (DC50) was put at 1.66 nM. Further, the “CCNE1 HIBIT Protein Quantification Maximum” value in test [2] is reported as 44%. The Dmax in test [3] (6 h) is 9%.
As for `Cn1nc(N2CCC(=O)NC2=O)c2ccc(C3CCN(Cc4cccc(S(=O)(=O)N5CC[C@H](Nc6ncc7c(n6)N([C@@H]6CCC[C@@H](O)C6)C(=O)C76CC6)[C@@H](F)C5)c4)CC3)cc21` [Compound 157], the “CDK2 HIBIT Protein Quantification Maximum” value in test [1] amounted to 18%. In addition, the “CCNE1 HIBIT Protein Quantification Maximum” value in test [2] was 14%. In addition, in test [3] (6 h), the Dmax came to 12%.
Turning to `Cn1nc(N2CCC(=O)NC2=O)c2ccc(C3CCN(Cc4cc(S(=O)(=O)N5CCC(Nc6ncc7c(n6)N([C@@H]6CCC[C@@H](O)C6)C(=O)C76CC6)CC5)ccn4)CC3)cc21` [Compound 160, 1-[6-(1-{[4-(4-{7′-[(1R,3R)-3-Hydroxycyclohexyl]-6′-oxospiro[cyclopropane-1,5′-pyrrolo[2,3-d]pyrimidin]-2′-ylamino}piperidin-1-ylsulfonyl)pyridin-2-yl]methyl}piperidin-4-yl)-1-methylindazol-3-yl]-1,3-diazinane-2,4-dione], in test [1], the “CDK2 HIBIT Protein Quantification Maximum” value is 75% and the DC50 stood at 25.2 nM. For the same compound, the “CCNE1 HIBIT Protein Quantification Maximum” value in test [2] was found to be 34%. The Dmax in test [3] (6 h) was 38%.
For `Cn1nc(N2CCC(=O)NC2=O)c2ccc(C3CCN(Cc4cccc(S(=O)(=O)N5CCC(Nc6ncc7c(n6)N(c6cc(F)ccc6Cl)C(=O)C76CC6)CC5)c4)CC3)cc21` [Compound 162, 1-(6-{1-[(3-{4-[7′-(2-Chloro-5-fluorophenyl)-6′-oxospiro[cyclopropane-1,5′-pyrrolo[2,3-d]pyrimidin]-2′-ylamino]piperidin-1-ylsulfonyl}phenyl)methyl]piperidin-4-yl}-1-methylindazol-3-yl)-1,3-diazinane-2,4-dione], in test [1], the “CDK2 HIBIT Protein Quantification Maximum” value worked out at 75% and the DC50 was determined as 8.03 nM. The “CCNE1 HIBIT Protein Quantification Maximum” value in test [2] stood at 42%. The Dmax in test [3] was 4%.
Regarding `Cc1ccc(CN2CCC(c3ccc4c(N5CCC(=O)NC5=O)nn(C)c4c3)CC2)cc1S(=O)(=O)N1CCC(Nc2ncc3c(n2)N([C@@H]2CCC[C@@H](O)C2)C(=O)C32CC2)CC1` [Compound 163, 1-[6-(1-{[3-(4-{7′-[(1R,3R)-3-Hydroxycyclohexyl]-6′-oxospiro [cyclopropane-1,5′-pyrrolo[2,3-d]pyrimidin]-2′-ylamino}piperidin-1-ylsulfonyl)-4-methylphenyl]methyl}piperidin-4-yl)-1-methylindazol-3-yl]-1,3-diazinane-2,4-dione], the “CDK2 HIBIT Protein Quantification Maximum” value in test [1] was 26%. The “CCNE1 HIBIT Protein Quantification Maximum” value in test [2] is listed as 38%. Further, the Dmax in test [3] (6 h) worked out at 51%. Also, the DC50 in test [3] (ABS DC50) amounted to 25.3 nM.
Consider `Cn1nc(N2CCC(=O)NC2=O)c2ccc(C3CCN(Cc4ccnc(S(=O)(=O)N5CCC(Nc6ncc7c(n6)N([C@@H]6CCC[C@@H](O)C6)C(=O)C76CC6)CC5)c4)CC3)cc21` [Compound 165, 1-[6-(1-{[2-(4-{7′-[(1R,3R)-3-Hydroxycyclohexyl]-6′-oxospiro[cyclopropane-1,5′-pyrrolo[2,3-d]pyrimidin]-2′-ylamino}piperidin-1-ylsulfonyl)pyridin-4-yl]methyl}piperidin-4-yl)-1-methylindazol-3-yl]-1,3-diazinane-2,4-dione], for which, in test [1], the “CDK2 HIBIT Protein Quantification Maximum” value came out at 78% and the DC50 was 10.1 nM. In test [2], the “CCNE1 HIBIT Protein Quantification Maximum” value is given as 44%. The Dmax in test [3] (6 h) came out at 13%.
In the same order, the values of `Cn1nc(N2CCC(=O)NC2=O)c2ccc(C3CCN(Cc4cccc(S(=O)(=O)N5CCC(Nc6ncc7c(n6)N([C@@H]6CCC[C@@H](O)C6)C(=O)C76CC6)CC5)n4)CC3)cc21` [Compound 166, 1-[6-(1-{[6-(4-{7′-[(1R,3R)-3-Hydroxycyclohexyl]-6′-oxospiro[cyclopropane-1,5′-pyrrolo[2,3-d]pyrimidin]-2′-ylamino}piperidin-1-ylsulfonyl)pyridin-2-yl]methyl}piperidin-4-yl)-1-methylindazol-3-yl]-1,3-diazinane-2,4-dione] are 64%, 21.3 nM, 44% and 18%.
